Source: US5235045A, “Non-azo naphthalimide dyes” (priority 1992, dated 1993)

Columns and labels:
[1] = Cell viability in absence of light (trypan blue exclusion); format: cell-based, human; conditions: dark
From the text: Following the protocol of (1), above, H9 cells were stained with Compound lb, and the technique of fluorescent microscopy was used to determine visually the sites of localization of dye fluorescence in living cells. Specifically, H9 cells were counted with a hemocytometer and diluted to 5×10^5 /ml. […] Cytospin slides of the cell suspensions were made and they were examined with the fluorescence microscope (Olympus AH-2) using B excitation plus a 460 nm interference excitation filter and a 495 nm emission filter. The cells were also counted with a hemocytometer and their viability determined (see below). […] The former may reflect the diffusional component of the dye incorporation, or may reflect binding in the ER membrane. The latter may indicate lysosomal localization of pinocytosed dye as occurs with Lucifer Yellow.
Cell viability was determined using dye incorporated according to the protocol directly above. Viability was determined using a trypan blue dye exclusion test in which "live" cells with competent cell membranes exclude the dye. Table 5 summarizes the data obtained using cells exposed to Compound 1b in culture medium, and Table 6 summarizes data obtained using cells exposed to Compound VII.

H9 cells = experiment: Uptake into living H9 cells; format: cell-based, human; conditions: for rate constant for uptake: 10% fetal calf serum
Procedure: For measurement, the pellet was diluted in 3 ml PBS+0.1% CTAB immediately prior to fluorescence measurement. Fluorescence measurements were made using an excitation wavelength of 451 nm, and an emission wavelength of 526 nm.
The protocol used is as above in (1), modified as below for those experiments in the presence of colchicine: Colchicine (1 mg/ml) was added to H9 cells at 5×10^.ident. cells/ml, and incubated for 1 hour. The cells were centrifuged, fresh medium was added, and 1b (25 μM) was added. Samples were taken at 0, 2, and 4 hours.

[2] = system: Human Herpes Simplex Virus Type I; experiment: Photoinduced inactivation of HSV-I, plaque assay (Table 11); format: cell-based; conditions: 420±5 nm, 20J/cm^2
[3] = Bleaching kinetics in synthetic vesicles; format: physicochemical; conditions: 150-W xenon arc lamp, 20° C.
Procedure: The dye was incorporated into synthetic vesicles as described above. The vesicles were irradiated with a 150-W Oriel xenon arc lamp at a distance of 4 cm from the lens at a thermostated temperature of 20° C. The change in fluorescence intensity with time was determined above, and the results plotted as a standard first order plot.

[4] = system: Human serum Albumen (HSA); experiment: Protein crosslinking with DiEd6Br: human serum albumen; format: biochemical; conditions: 30.0 μM, 791 J/cm^2
[5] = Tissue bonding of swine dura mater with DiEd6Br and light
From the text: Bonding together of the overlapping surfaces of two strips of swine dura mater and of two thin slices of beef muscle with application of DiEd6Br in Cremophor EL as a carrier and irradiation with 420 # 5 nm light filtered from a xenon arc lamp were studied.
Strips approximately 3×0.5 cm in dimension were cut from freshly harvested swine cranial dura mater, washed with 70% ethanol/water and blotted to dryness with standard chemical filter paper. External faces of each member of two pairs of strips were coated with a stock solution of Cremophor EL saturated at room temperature with DiEd6Br (approximately 2.5 millimolar), overlapped 1 cm with long axes parallel, and clamped between two Pyrex glass slides with edges of the slide-tissue-slide sandwich sealed with Parafilm. One sample was irradiated with 420 # 5 nm light of 25 mW/cm^2 irradiance for […]. at room temperature to give a total light fluence of approximately 1800 J/cm^2. The companion sample was wrapped in aluminum foil for light shielding and placed alongside the irradiated sample for the duration of the experiment.
Following their respective irradiation or being held in the dark in similar temperature ambience, one end of a strip of each sample was clamped and from the other a Styrofoam container was hung by a clamp and fine suspension wires (weight of clamp plus container plus wires=33.3 gm). Weights (10 gm each) were added gently in a sequential fashion to give a total weight of 296.3 gm upon which the strip is separated at their interface within the overlapped region of the irradiated sample. Strips of the un-irradiated sample separated immediately at their interface under the 33.3 gm loading of the "weighing" container. […] Elongation was approximately 50% at shearing of the interface.

[6] = system: various individual protein preparations; experiment: Protein cross-linking with DiEd6Br and light (gel electrophoresis, general); format: biochemical
From the text: Concomitant with the appearance of the heavier species with photoillumination with the decrease in intensity of electromigrated bands of the initially present protein.

CCCCCCNc1ccc2c3c(cccc13)C(=O)N(CCCCCC)C2=O [Compound 1b, 4-(hexyl)amino-N-hexyl-1,8-naphthalimide]
viability at 1.5 h, 5 µM ([1]; human, 5 μM, medium 1.5 hours, counted 2.5 hours after): 96.7% | viability at 1.5 h, 25 µM ([1]; human, 25 μM, medium 1.5 hours, counted 2.5 hours after): 97.1% | rate constant for uptake (H9 cells; 1 μM, 4° C.): 3.5 ± 0.6 × 10^-4 s^-1 | rate constant for uptake (H9 cells; 1 μM, 37° C.): 3.6 ± 1.7 × 10^-4 s^-1 | rate constant for uptake (H9 cells; 5 μM, 4° C.): 2.7 ± 1.0 × 10^-4 s^-1 | rate constant for uptake (H9 cells; 5 μM, 37° C.): 3.3 ± 0.7 × 10^-4 s^-1 | rate constant for uptake (H9 cells; 25 μM, 4° C.): 2.3 ± 0.9 × 10^-4 s^-1 | rate constant for uptake (H9 cells; 25 μM, 37° C.): 2.5 ± 0.3 × 10^-4 s^-1 | total uptake in presence of colchicine (H9 cells; 25 μM, colchicine pre-incubated 1 hour): decreased | slope of log/log plot of fluorescence vs. time, presence and absence of colchicine (H9 cells; after 2 hours, 25 μM): essentially the same slope

CCCCCCNc1c(Br)cc2c3c(cccc13)C(=O)N(CCCCCC)C2=O [Compound VII, 3-bromo-4-(hexyl)amino-N-hexyl-1,8-naphthalimide]
viability at 4 h, 1 µM ([1]; 1 μM, 100% human plasma 4 hours, 1 hour after): 95.9% | viability at 4 h, 5 µM ([1]; 5 μM, 100% human plasma 4 hours, 1 hour after): 94.7% | viability at 4 h, 25 µM ([1]; 25 μM, 100% human plasma 4 hours, 1 hour after): 95.5% | viability at 24 h, 1 µM ([1]; human, 1 μM, medium 24 hours, 1 hour after): 86.8% | viability at 24 h, 10 µM ([1]; human, 10 μM, medium 24 hours, 1 hour after): 80% | viability at 24 h, 25 µM ([1]; human, 25 μM, medium 24 hours, 1 hour after): 79.6% | viability at 24 h, 50 µM ([1]; human, 50 μM, medium 24 hours, 1 hour after): 42.5% | Infectivity, Average ([2]; 0.078 μM): 37.5 PFU/ml | Infectivity, first PFU/ml column ([2]; 0.078 μM): 45 PFU/ml | Infectivity, second PFU/ml column ([2]; 0.078 μM): 30 PFU/ml | Infectivity, Average ([2]; 0.156 μM): 17.5 PFU/ml | Infectivity, first PFU/ml column ([2]; 0.156 μM): 20 PFU/ml | Infectivity, second PFU/ml column ([2]; 0.156 μM): 15 PFU/ml | Infectivity, Average ([2]; 0.312 μM): 7.5 PFU/ml | Infectivity, first PFU/ml column ([2]; 0.312 μM): 10 PFU/ml | Infectivity, second PFU/ml column ([2]; 0.312 μM): 5 PFU/ml | Infectivity, Average ([2]; 0.625 μM): 0 PFU/ml | Infectivity, first PFU/ml column ([2]; 0.625 μM): 0 PFU/ml | Infectivity, Average ([2]; 1.25 μM): 0 PFU/ml | Infectivity, first PFU/ml column ([2]; 1.25 μM): 0 PFU/ml | Infectivity, second PFU/ml column ([2]; 1.25 μM): 0 PFU/ml | Infectivity, Average ([2]; 2.5 μM): 0 PFU/ml | Infectivity, first PFU/ml column ([2]; 2.5 μM): 0 PFU/ml | Infectivity, second PFU/ml column ([2]; 2.5 μM): 0 PFU/ml | Infectivity, Average ([2]; 5 μM): 0 PFU/ml | Infectivity, first PFU/ml column ([2]; 5 μM): 0 PFU/ml | Infectivity, second PFU/ml column ([2]; 5 μM): 0 PFU/ml | Infectivity, Average ([2]; 10 μM): 0 PFU/ml | Infectivity, first PFU/ml column ([2]; 10 μM): 0 PFU/ml | Infectivity, second PFU/ml column ([2]; 10 μM): 0 PFU/ml | activity at 0.078 µM ([2]; Human alphaherpesvirus 1, light or radiation study, 0.078 μM, read-out: % Survival): 0.006% | log reduction at 0.078 µM ([2]; Human alphaherpesvirus 1, light or radiation study, 0.078 μM, read-out: log10 reduction): 4.2 | activity at 0.156 µM ([2]; Human alphaherpesvirus 1, light or radiation study, 0.156 μM, read-out: % Survival): 0.0028% | log reduction at 0.156 µM ([2]; Human alphaherpesvirus 1, light or radiation study, 0.156 μM, read-out: log10 reduction): 4.5 | activity at 0.312 µM ([2]; Human alphaherpesvirus 1, light or radiation study, 0.312 μM, read-out: % Survival): 0.0012% | log reduction at 0.312 µM ([2]; Human alphaherpesvirus 1, light or radiation study, 0.312 μM, read-out: log10 reduction): 4.9 | activity at 0.625 µM ([2]; Human alphaherpesvirus 1, light or radiation study, 0.625 μM, read-out: % Survival): < 0.0002% | log reduction at 0.625 µM ([2]; Human alphaherpesvirus 1, light or radiation study, 0.625 μM, read-out: log10 reduction): > 5.7 | activity at 1.25 µM ([2]; Human alphaherpesvirus 1, light or radiation study, 1.25 μM, read-out: % Survival): < 0.0002% | log reduction at 1.25 µM ([2]; Human alphaherpesvirus 1, light or radiation study, 1.25 μM, read-out: log10 reduction): > 5.7 | activity at 2.5 µM ([2]; Human alphaherpesvirus 1, light or radiation study, 2.5 μM, read-out: % Survival): < 0.0002% | log reduction at 2.5 µM ([2]; Human alphaherpesvirus 1, light or radiation study, 2.5 μM, read-out: log10 reduction): > 5.7 | activity at 5 µM ([2]; Human alphaherpesvirus 1, light or radiation study, 5 μM, read-out: % Survival): < 0.0002% | log reduction at 5 µM ([2]; Human alphaherpesvirus 1, light or radiation study, 5 μM, read-out: log10 reduction): > 5.7 | activity at 10 µM ([2]; Human alphaherpesvirus 1, light or radiation study, 10 μM, read-out: % Survival): < 0.0002% | log reduction at 10 µM ([2]; Human alphaherpesvirus 1, light or radiation study, 10 μM, read-out: log10 reduction): > 5.7 | rate constant for bleaching ([3]; 0 mol % cholesterol): 1.08 ± 0.08 × 10^-3 s^-1 | rate constant for bleaching ([3]; 15 mol % cholesterol): 2.00 ± 0.13 × 10^-3 s^-1 | rate constant for bleaching ([3]; 30 mol % cholesterol): 3.08 ± 0.20 × 10^-3 s^-1 | rate constant for bleaching ([3]; 45 mol % cholesterol): 3.1 ± 0.9 × 10^-3 s^-1

CCCCCCN1C(=O)c2cccc3c(NCCNC(=O)CCCCC(=O)NCCNc4c(Br)cc5c6c(cccc46)C(=O)N(CCCCCC)C5=O)c(Br)cc(c23)C1=O [Compound XLIV]
heavier bands [4]: many ill separated heavier bands merging together near | Inferred Crosslinked Species ([4]; first species): 2 HSA | Inferred Crosslinked Species ([4]; second species): 3 HSA | Inferred Crosslinked Species ([4]; third species): 3 HSA | Inferred Crosslinked Species, Gel mw ([4]; 2 HSA units): 120 kD | Inferred Crosslinked Species, Gel mw ([4]; 3 HSA units (so in the source), third species): 240 kD | Inferred Crosslinked Species, Gel mw ([4]; 3 HSA units, second species): 180 kD | deformation after separation ([5]; irradiated): no plastic deformation | elongation at shearing of the interface ([5]; irradiated): approximately 50% | total weight at separation of strips ([5]; irradiated, approximately 1800 J/cm^2): 296.3 gm | loading at which strips separated immediately ([5]; un-irradiated): ≤ 33.3 gm | heavier molecular species in absence of light ([6]; no light): complete absence of these species | heavier molecular species ([6]; photoirradiation nominally 420 nm): formation of slower electromigrating, thus heavier, molecular species
